Where two headings read alike, the source gives them in different places.
How the values were obtained:
[1] = molecular target: T1, VGLL1-TEAD complex (mouse Vgll1 (26-51) probe, human TEAD4 (217-434)) (Homo sapiens, UniProt Q15561); test: Vgll1-TEAD fluorescence polarization assay; type: binding; details: TEAD4 350 nM, Vgll1 probe 25 nM
T1 construct: made in house
Description: (§1) Human YAP (61–100), human TAZ (23–57) and mouse Vgll1 (26–51) peptide probes were used; all the probes had carboxyfluorescein labels. Human TEAD4 (217–434) was used in the assay at a concentration of 350 nM and the peptide probe concentration was 25 nM. Disruptors were titrated at concentrations ranging from 0–150 μM to the probe-TEAD complex, and the mixtures were incubated at 25°C for 20 min. Then, polarization measurements were taken using a Victor3 (PerkinElmer) plate reader.

[2] = test system: CYR61, CTGF, AMOTL2 and ANKRD1 transcripts in TC-expressing NIH3T3 cells; test: qPCR of canonical TAZ target genes; type: cell-based, murine; details: ATA 10 μM, 48 h
Description: NIH3T3 and HEK293 cells were obtained from the American Type Tissue Collection (ATCC, Manassas, VA) and cultured in DMEM containing 10% fetal bovine serum and penicillin/streptomycin. A TEAD dual luciferase reporter assay was performed as previously described. Cells were treated with vehicle control or ATA (10 μM) for 48 h before measuring the luciferase activity or processing the samples for RNA extraction. Each experiment was repeated at least 2-3 times. NIH3T3 cells were used. The extracted RNA (RNeasy Mini, Qiagen) from treated cells was either used for qPCR measurements or sent for bulk RNA-Seq. Sequencing runs were performed on an Illumina HiSeq 4000 sequencer (Genewiz). […] Paired end reads were aligned to the murine genome ([…]2 [27]. Raw count files were generated with featureCounts using a corresponding GTF reference. Differential gene expression analysis was performed with DESeq2 [29]. Transcripts were considered to be differentially expressed if the false discovery rate < 0.05 and Log2FC > 2. When performing differential gene expression for GSEA analysis, the Limma package was used (<5 CPM filtering) with t-scores used for rank statistics. GSEA plots and statistics were generated with FGSEA with custom gene sets. Raw sequencing reads and processed files have been deposited in the GEO repository (data will be uploaded upon manuscript acceptance). […]

[3] = molecular target: T2, TAZ-TEAD complex (human TAZ (23-57) probe, human TEAD4 (217-434)) (Homo sapiens, UniProt Q15561); test: TAZ-TEAD fluorescence polarization assay; type: binding; details: TEAD4 350 nM, probe 25 nM
T2 construct: made in house
Description: as §1

[4] = molecular target: T3, TEAD4 (Homo sapiens, UniProt Q15561); test: ThermoFluor assay, TEAD; type: binding; details: protein 5 μM
T3 construct: ThermoFluor assays measuring the melting temperatures (Tm) of full-length TAZ or TEAD in the presence of ATA; strep (N, cleaved yes); made in house; host or cells: Escherichia coli BL21(DE3)pLysS
Description: To assess changes in protein stability, a dye-based thermal melting assay (ThermoFluor) was used. Purified protein (TAZ or TEAD4), ATA, and Protein Thermal Shift dye (ThermoFisher) were mixed in 96-well plates. The final concentration of the protein was 5 μM. The melting temperature was measured using LightCycler 480 (Roche). Each experiment was repeated at least twice.

[5] = test system: TC/TEAD transcriptional activity in HEK293 cells expressing TAZ-CAMTA1; test: TC/TEAD dual luciferase reporter assay; type: cell-based; details: ATA 10 μM, 48 h
Description: NIH3T3 and HEK293 cells were obtained from the American Type Tissue Collection (ATCC, Manassas, VA) and cultured in DMEM containing 10% fetal bovine serum and penicillin/streptomycin. A TEAD dual luciferase reporter assay was performed as previously described. Cells were treated with vehicle control or ATA (10 μM) for 48 h before measuring the luciferase activity or processing the samples for RNA extraction. Each experiment was repeated at least 2–3 times.

T2 sequence (Q15561 217-434, one chain of several): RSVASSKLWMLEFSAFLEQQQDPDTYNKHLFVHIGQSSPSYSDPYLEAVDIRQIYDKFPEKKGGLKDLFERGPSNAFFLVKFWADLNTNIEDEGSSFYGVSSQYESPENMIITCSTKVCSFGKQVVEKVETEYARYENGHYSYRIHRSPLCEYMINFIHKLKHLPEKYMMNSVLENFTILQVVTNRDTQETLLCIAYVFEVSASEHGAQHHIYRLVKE
T3 sequence (Q15561 whole entry): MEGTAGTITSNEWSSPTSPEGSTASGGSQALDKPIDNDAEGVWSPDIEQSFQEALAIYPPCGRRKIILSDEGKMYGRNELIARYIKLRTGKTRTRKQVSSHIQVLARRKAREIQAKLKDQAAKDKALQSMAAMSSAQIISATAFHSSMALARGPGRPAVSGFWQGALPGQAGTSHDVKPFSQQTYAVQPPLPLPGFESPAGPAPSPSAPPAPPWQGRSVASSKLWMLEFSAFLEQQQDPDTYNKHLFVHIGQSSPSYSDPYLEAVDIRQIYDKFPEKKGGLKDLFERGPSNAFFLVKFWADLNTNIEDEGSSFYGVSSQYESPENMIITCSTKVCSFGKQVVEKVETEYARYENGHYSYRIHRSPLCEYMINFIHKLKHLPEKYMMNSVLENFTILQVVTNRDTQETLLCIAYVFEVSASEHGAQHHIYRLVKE
T1 sequence (Q15561 217-434, one chain of several): as the sequence (Q15561 217-434, one chain of several) above

O=C(O)C1=CC(=C(c2ccc(O)c(C(=O)O)c2)c2ccc(O)c(C(=O)O)c2)C=CC1=O [ATA, aurintricarboxylic acid]
disruption of the VGLL1-TEAD interaction (in words) [1]: ineffective | transcripts of canonical TAZ target genes (CYR61, CTGF, AMOTL2, ANKRD1) by qPCR [2]: suppression of these transcripts | IC50 ([3]; acylated TEAD, read-out: IC50, TAZ-TEAD FP assay, acylated TEAD): 68 µM | IC50 ([3]; deacylated TEAD, read-out: IC50, TAZ-TEAD FP assay, deacylated TEAD): 72 µM | shift in Tm in the ThermoFluor assay (in words) ([4]; TAZ or TEAD): increased the Tm | melting temperature (Tm) of TEAD + ATA ([4]; full-length TEAD): 54.8 °C | TC-dependent increase of TEAD luciferase reporter activity [5]: significantly reduced
